Converted amounts (≈) assume the structure as drawn. “And” between values parts separate entries of the source, which are not always exact repeats. Equal entries are not always repeated. Each block holds one compound with its values, some of them ahead of it.
Tests used:
Experiment in all cases: ≥ marks a high value that may be exact or a test limit, other limits are often not marked, values filed in µg/mL are converted to µM
[1] = system: Pseudomonas aeruginosa MTCC 3542
[2] = system: Corynebacterium glutamicum MTCC 2679
[3] = system: Proteus mirabilis MTCC 3158
[4] = system: Haemophilus influenzae MTCC 621
[5] = system: Pluralibacter gergoviae MTCC 3826
[6] = system: Enterococcus faecalis MTCC 439
[7] = system: Vibrio cholerae MTCC 3904
[8] = system: Salmonella enterica subsp. enterica serovar Typhimurium ATCC 14028
[9] = system: Klebsiella aerogenes MTCC 111
[10] = system: Klebsiella oxytoca MTCC 2275
[11] = system: Proteus vulgaris MTCC 1771
[12] = system: Citrobacter koseri MTCC 1657
[13] = system: Staphylococcus aureus MTCC 3160
[14] = system: Alkalihalobacillus alcalophilus MTCC 860
[15] = system: Staphylococcus haemolyticus MTCC 3383
[16] = system: Escherichia coli K12 MG1655
[17] = system: Klebsiella pneumoniae MTCC 7407
[18] = system: Salmonella enterica MTCC 9844
[19] = system: Shigella boydii MTCC 11947
[20] = system: Acinetobacter baumannii MTCC 9829
[21] = system: Stenotrophomonas maltophilia MTCC 1890
[22] = system: Bordetella bronchiseptica MTCC 6837
[23] = system: Shigella flexneri MTCC 1457
[24] = system: Alcaligenes faecalis MTCC 1937
[25] = system: Citrobacter freundii MTCC 1658
[26] = system: Pseudomonas aeruginosa ATCC 27853
[27] = system: Staphylococcus aureus MTCC 9542
Vibrio cholerae = system: Vibrio cholerae
[28] = system: Enterococcus faecalis ATCC 29212
[29] = system: Bacillus subtilis MTCC 14416
Escherichia coli MG1655 = system: Escherichia coli MG1655
[30] = system: Staphylococcus aureus ATCC 43300
[31] = system: Trichophyton mentagrophytes
Microsporum canis = system: Microsporum canis
Proteus mirabilis = system: Proteus mirabilis
Staphylococcus sciuri = system: Staphylococcus sciuri
[32] = system: Pseudomonas aeruginosa PA006
[33] = system: Pseudomonas aeruginosa PA002
Escherichia coli = system: Escherichia coli
[34] = system: Staphylococcus cohnii MW767053
[35] = system: Pseudomonas aeruginosa PAO1
[36] = system: Staphylococcus pseudintermedius MW767056
[37] = system: Staphylococcus epidermidis ATCC 12228
[38] = system: Escherichia coli ATCC 25922
[39] = system: Candida albicans ATCC 90028
Staphylococcus simulans = system: Staphylococcus simulans
[40] = system: Cryptococcus neoformans B3501
[41] = system: Trichophyton rubrum ATCC 28189
[42] = system: Microsporum canis MW768151
Klebsiella pneumoniae = system: Klebsiella pneumoniae
[43] = system: Klebsiella pneumoniae ATCC 13833
[44] = system: Staphylococcus pseudintermedius
[45] = system: Staphylococcus haemolyticus
[46] = system: Staphylococcus epidermidis
[47] = system: Escherichia coli DH5alpha
[48] = system: Escherichia coli NBRC 3972
Staphylococcus aureus = system: Staphylococcus aureus
[49] = system: Pseudomonas aeruginosa NBRC 13275
[50] = system: Proteus vulgaris NBRC 3045

Structure (SMILES): CC[C@H](C)[C@H](NC(=O)[C@H](C)NC(=O)[C@@H]1CCCN1C(=O)[C@@H]1CCCN1C(=O)[C@H](CC(C)C)NC(=O)[C@H](Cc1cnc[nH]1)NC(=O)[C@H](CCCCN)NC(=O)[C@H](C)NC(=O)[C@@H](NC(=O)CNC(=O)[C@H](CCCCN)NC(=O)[C@H](C)NC(=O)[C@@H](NC(=O)[C@@H](N)CCC(=O)O)[C@@H](C)O)C(C)C)C(=O)N[C@@H](C)C(=O)O [ETAKGVAKHLPPAIA]
MIC [1]: ≥ 85.2 µM
MIC [2]: ≥ 85.2 µM
MIC [3]: ≥ 85.2 µM
MIC [4]: ≥ 85.2 µM
MIC [5]: ≥ 85.2 µM
MIC [6]: ≥ 85.2 µM
MIC [7]: ≥ 85.2 µM
MIC [8]: > 85.2 µM
MIC [9]: ≥ 85.2 µM
MIC [10]: ≥ 85.2 µM
MIC [11]: ≥ 85.2 µM
MIC [12]: ≥ 85.2 µM
MIC [13]: ≥ 85.2 µM
MIC [14]: ≥ 85.2 µM
MIC [15]: ≥ 85.2 µM
MIC [16]: ≥ 85.2 µM
MIC [17]: ≥ 85.2 µM
MIC [18]: ≥ 85.2 µM
MIC [19]: ≥ 85.2 µM
MIC [20]: ≥ 85.2 µM
MIC [21]: ≥ 85.2 µM
MIC [22]: ≥ 85.2 µM
MIC [23]: ≥ 85.2 µM
MIC [24]: ≥ 85.2 µM
MIC [25]: ≥ 85.2 µM

MIC [26]: > 49 µM
MIC [27]: 24.5 µM (≈ 50 µg/mL)
MIC [28]: 24.5 µM (≈ 50 µg/mL)
MIC [29]: 24.5 µM (≈ 50 µg/mL)
MIC (Escherichia coli MG1655): 12.3 µM (≈ 25 µg/mL)
MIC [30]: 24.5 µM (≈ 50 µg/mL)
Structure (SMILES): CC[C@H](C)[C@H](N)C(=O)N[C@@H](C)C(=O)NCC(=O)N[C@@H](CC(C)C)C(=O)N[C@@H](C)C(=O)N[C@@H](C)C(=O)N[C@@H](CC(N)=O)C(=O)N[C@@H](Cc1ccccc1)C(=O)N[C@@H](CC(C)C)C(=O)N1CCC[C@H]1C(=O)N[C@@H](CCC(N)=O)C(=O)N[C@H](C(=O)N[C@@H](CC(C)C)C(=O)N[C@@H](CS)C(=O)N[C@@H](CCCCN)C(=O)N[C@H](C(=O)N[C@@H](C)C(=O)N[C@@H](CCCN=C(N)N)C(=O)N[C@@H](CCCCN)C(N)=O)[C@@H](C)CC)[C@@H](C)CC [IAGLAANFLPQILCKIARK]
MIC (Vibrio cholerae): 24.5 µM (≈ 50 µg/mL)

MIC [31]: 0.51 µM (≈ 1 µg/mL)
MIC [26]: 4.08 µM and 1.67 µM and 4 µM
MIC (Microsporum canis): 1.44 µM (≈ 2.83 µg/mL)
MIC (Proteus mirabilis): ≥ 65.2 µM
MIC (Staphylococcus sciuri): ≥ 130 µM
MIC [32]: 2.04 µM (≈ 4 µg/mL)
MIC [33]: 8.15 µM (≈ 16 µg/mL)
MIC (Escherichia coli): 1.44 µM and 2.88 µM
MIC [34]: 16.3 µM (≈ 32 µg/mL)
MIC [35]: 4.08 µM (≈ 8 µg/mL)
MIC [28]: 8.15 µM (≈ 16 µg/mL)
MIC [36]: ≥ 130 µM
MIC [37]: 1 µM (≈ 1.96 µg/mL)
MIC [38]: 2.04 µM and 2 µM
MIC [39]: 1.67 µM (≈ 3.28 µg/mL)
MIC (Staphylococcus simulans): ≥ 32.6 µM
MIC [40]: 2 µM (≈ 3.92 µg/mL)
MIC [41]: 8 µM (≈ 15.7 µg/mL)
MIC [42]: 0.51 µM (≈ 1 µg/mL)
MIC (Klebsiella pneumoniae): 5.77 µM (≈ 11.3 µg/mL)
MIC [43]: 1 µM (≈ 1.96 µg/mL)
MIC [44]: ≥ 32.6 µM
Structure (SMILES): CC[C@H](C)[C@H](NC(=O)[C@H](Cc1ccccc1)NC(=O)CNC(=O)[C@H](CCCCN)NC(=O)[C@@H](NC(=O)[C@H](Cc1ccccc1)NC(=O)[C@H](CCCCN)NC(=O)[C@H](CCCN=C(N)N)NC(=O)[C@@H](NC(=O)[C@@H](NC(=O)[C@H](CCCN=C(N)N)NC(=O)[C@@H](NC(=O)[C@H](C)NC(=O)[C@H](Cc1c[nH]c2ccccc12)NC(=O)[C@@H](N)CCCCN)C(C)C)[C@@H](C)CC)[C@@H](C)CC)[C@@H](C)CC)C(=O)N[C@@H](CO)C(N)=O [KWAVRIIRKFIKGFIS]
MIC [45]: ≥ 65.2 µM

MIC [46]: 6.25 µM (≈ 14 µg/mL)
MIC [47]: 25 µM (≈ 55.8 µg/mL)
MIC [48]: 12.5 µM (≈ 27.9 µg/mL)
MIC (Staphylococcus aureus): 100 µM (≈ 223 µg/mL)
MIC [49]: 3.12 µM (≈ 6.98 µg/mL)
MIC [50]: ≥ 100 µM
Structure (SMILES): CC(C)C[C@H](NC(=O)[C@H](CCCCN)NC(=O)CNC(=O)[C@H](CCCCN)NC(=O)[C@H](CC(C)C)NC(=O)[C@H](CCCCN)NC(=O)[C@H](CC(C)C)NC(=O)[C@H](CCCCN)NC(=O)[C@H](C)NC(=O)CNC(=O)[C@H](CC(C)C)NC(=O)[C@H](CCCCN)NC(=O)[C@H](CC(C)C)NC(=O)[C@H](CCCCN)NC(=O)[C@H](C)NC(=O)[C@H](CC(C)C)NC(=O)[C@H](CCCCN)NC(=O)[C@H](CCCCN)NC(=O)[C@@H](N)CCCCN)C(=O)NCC(=O)N[C@@H](C)C(N)=O [KKKLAKLKLGAKLKLKGKLGA]

From DBAASP
